According to patent publication US20150218212A1, “FLUORINATED EPOXYKETONE-BASED TETRAPEPTIDE COMPOUNDS AND USES THEREOF AS PROTEASOME INHIBITORS” (FLUORINOV PHARMA INC., priority 2012, published 2015):

Columns and labels:
[1] = test system: SK-MEL-2; experiment: NCI screening panel, SK-MEL-2 (Melanoma); type: cell-based, human
Procedure: Representative compounds of Formula I were screened using the National Cancer Institute (NCI) screening panel, which consists of a panel of human tumor cell lines, representing leukemia, melanoma, and cancers of the lung, colon, ovary, breast, prostate and renal system.
After 24 h, two plates of each cell line are fixed in situ with TCA, to represent a measurement of the cell population for each cell line at the time of drug addition (Tz). Experimental drugs are solubilised in dimethyl sulfoxide at 400-fold the desired final maximum test concentration and stored frozen prior to use. At the time of drug addition, an aliquot of frozen concentrate is thawed and diluted to twice the desired final maximum test concentration with complete medium containing 50 μg/mL gentamicin. Additional four, 10-fold or ½ log serial dilutions are made to provide a total of five drug concentrations plus control. Aliquots of 100 μl of these different drug dilutions are added to the appropriate microtiter wells already containing 100 μl of medium, resulting in the required final drug concentrations.
Following drug addition, the plates are incubated for an additional 48 h at 37° C., 5% CO2, 95% air, and 100% relative humidity. For adherent cells, the assay is terminated by the addition of cold TCA (trichloroacetic acid). Cells are fixed in situ by the gentle addition of 50 μl of cold 50% (w/v) TCA (final concentration, 10% TCA) and incubated for 60 minutes at 4° C. The supernatant is discarded, and the plates are washed five times with tap water and air dried. Sulforhodamine B (SRB) solution (100 μl) at 0.4% (w/v) in 1% acetic acid is added to each well, and plates are incubated for 10 minutes at room temperature. After staining, unbound dye is removed by washing five times with 1% acetic acid and the plates are air dried. Bound stain is subsequently solubilised with 10 mM trizma base, and the absorbance is read on an automated plate reader at a wavelength of 515 nm. For suspension cells, the methodology is the same except that the assay is terminated by fixing settled cells at the bottom of the wells by gently adding 50 μl of 80% TCA (final concentration, 16% TCA). Using the seven absorbance measurements [time zero, (Tz), control growth, (C), and test growth in the presence of drug at the five concentration levels (Ti)], the percentage growth is calculated at each of the drug concentrations levels. Percentage growth inhibition is calculated as: [(Ti−Tz)/(C−Tz)]×100 for concentrations for which Ti>/=Tz and [(Ti−Tz)/Tz]×100 for concentrations for which Ti<Tz.
Three dose response parameters are calculated for each experimental agent. Growth inhibition of 50% (GI50) is calculated from [(Ti−Tz)/(C−Tz)]×100=50, which is the drug concentration resulting in a 50% reduction in the net protein increase (as measured by SRB staining) in control cells during the drug incubation. The drug concentration resulting in total growth inhibition (TGI) is calculated from Ti=Tz. The LC50 (concentration of drug resulting in a 50% reduction in the measured protein at the end of the drug treatment as compared to that at the beginning) indicating a net loss of cells following treatment is calculated from [(Ti−Tz)/Tz]×100=−50. Values are calculated for each of these three parameters if the level of activity is reached. However, if the effect is not reached or is exceeded, the value for that parameter is expressed as greater or less than the maximum or minimum concentration tested.

[2] = target: T1, proteasome Trypsin-like (T-L) activity (Mus musculus, UniProt P70195+Q9R1P1); experiment: Pharmacodynamic proteasome activity in murine red blood cells, T-L; type: in vivo, NOD/SCID mice; details: iv, mice, 2 mg/kg i.v., time 0, read-out: Trypsin-like (T-L) mean residual activity relative to vehicle treated controls
T1 construct: RBCs were lysed with assay lysis buffer and incubated on ice for 30 minutes; from tissue; host or cells: red blood cells of NOD/SCID mice
Procedure: Cells were harvested by centrifugation at 1,200 rpm at room temperature. Cell pellets were washed with PBS (phosphate buffered saline) and lysed with assay lysis buffer (50 mM HEPES (N-2-hydroxyethylpiperazine-N′-2-ethanesulfonic acid), pH 7.5; 150 mM NaCl; 1% Triton X-100; 2 mM ATP). Cell lysates were incubated on ice for 30 minutes, mixed by vortex every 5 minutes, and then centrifuged at 12,000 g for 10 minutes. The supernatant was transferred to a 96-well plate. For each assay, 10 μg of total protein were incubated for 1 hour at 37° C. with increasing concentrations (1 nM to 10 μM) of test compound diluted in assay buffer (50 mM tris-HCl (tris(hydroxymethyl)aminomethane-HCl), pH 7.5; 150 mM NaCl). DMSO alone was used as a control in every assay plate. After incubation, a specific fluorogenic proteasome substrate was added to each assay reaction at a final concentration of 40 μM in a total volume of 100 μL. N-Succinyl-Leu-Leu-Val-Tyr-7-amino-4-methylcoumarin (Suc-Leu-Leu-Val-Tyr-AMC) was used for measuring chymotrypsin-like (CT-L) activity, t-butoxycarbonyl-Leu-Arg-Arg-7-amino-4-methylcoumarin (Boc-Leu-Arg-Arg-AMC) for trypsin-like (T-L) activity, and benzyloxycarbonyl-L-leucyl-L-leucyl-L-glutamyl-7-amino-4-methylcoumarin (Z-Leu-Leu-Glu-AMC) for caspase-like (C-L) activity. The excitation wavelength was set at 360 nm and the fluorescence emission wavelength of AMC was detected at 460 nm. The fluorescence of free AMC released during the enzymatic reaction was measured with a SpectraMax M5 fluorescent spectrophotometric plate reader (Molecular Devices, Sunnyvale, Calif.). AMC release rate was measured at 37° C. in a kinetic mode, recording every 5 minutes for 30 minutes. Experiments were performed in triplicate and repeated at least twice.
All mouse experiments were performed in accordance with approval from the Ontario Cancer Institute institutional animal review board. Five- to six-week-old male non-obese diabetic/severe combined immunodeficient (NOD/SCID) mice were grouped randomly (n=3 mice per group). Mice were administered vehicle (5% DMSO, 20% Cremophor) or compounds of Formula I at different doses either intravenously or by oral gavage, and venous blood samples (20-50 μL) were collected from each mouse over 24 hours. Blood samples were mixed with heparin (APP Pharmaceuticals; Schaumburg, Ill.) in 0.5 mL tubes in accordance with the manufacturer's instructions. After centrifugal separation at 3,000 g for 10 minutes, red blood cells (RBCs) in the bottom layer were transferred into a new tube and stored at −70° C. until use. RBCs were lysed with assay lysis buffer and incubated on ice for 30 minutes, mixing by vortex every 5 minutes, and then centrifuged at 12,000 g for 10 minutes. The supernatant was transferred to a 96-well plate and proteasome activity was measured as described above for tumor cell lysates.
Proteasome subunit activity (Chymotrypsin-like, Trypsin-like, Caspase-like, CT-L, T-L, C-L, respectively) were monitored over the course of 24 hrs following […] administration of representative compounds of Formula I. NOD/SCID mice were treated with compounds of Formula I (2 mg/kg by iv administration) or vehicle control and carfilzomib for up to 24 hours, as described above. Table 9 summarizes the data on pharmacodynamic activity of representative compounds of Formula I following a dose of 2 mg/kg intravenous (i.v) administration to mice. Data are presented as mean residual activity (SEM) relative to vehicle treated controls.

SMILES	Log10GI50 [1]	Log10LC50 [1]	Log10TGI50 [1]	remaining activity at 2 mg/kg [2]
CC(C)C[C@H](NC(=O)[C@H](COC(F)F)NC(=O)CN1CCOCC1)C(=O)N[C@@H](COC(F)F)C(=O)N[C@@H](CC(C)C)C(=O)[C@@]1(C)CO1 [Example 1, (2S)—N-[(1S)-1-(difluoromethoxymethyl)-2-[[(1S)-3-methyl-1-[(2R)-2-methyloxirane-2-carbonyl]butyl]amino]-2-oxo-ethyl]-2-[[(2S)-3-(difluoromethoxy)-2-[(2-morpholinoacetyl)amino]propanoyl]amino]-4-methyl-pentanamide]	−7.60	>−4.00	−7.03	100%
CC(C)C[C@H](NC(=O)[C@H](COC(F)F)NC(=O)CN1CCOCC1)C(=O)N[C@@H](Cc1ccccc1)C(=O)N[C@@H](CC(C)C)C(=O)[C@@]1(C)CO1 [Example 2, (2S)-N-[(1S)-1-benzyl-2-[[(1S)-3-methyl-1-[(2R)-2-methyloxirane-2-carbonyl]butyl]-amino]-2-oxo-ethyl]-2-[[(2S)-3-(difluoromethoxy)-2-[(2-morpholinoacetyl)amino]propanoyl]amino]-4-methyl-pentanamide]	−7.66	>−4.00	−7.06	100%
CC(C)C[C@H](NC(=O)[C@H](COC(F)F)NC(=O)CN1CCOCC1)C(=O)N[C@@H](Cc1ccccc1)C(=O)N[C@@H](Cc1ccccc1)C(=O)[C@@]1(C)CO1 [Example 3, (2S)-N-[(1S)-1-benzyl-2-[[(1S)-1-benzyl-2-[(2R)-2-methyloxiran-2-yl]-2-oxo-ethyl]amino]-2-oxo-ethyl]-2-[[(2S)-3-(difluoromethoxy)-2-[(2-morpholinoacetyl)-amino]propanoyl]amino]-4-methyl-pentan-amide]	−7.92	>−4.00	−7.19	100%
CC(C)C[C@H](NC(=O)[C@H](COC(F)F)NC(=O)CN1CCOCC1)C(=O)N[C@@H](COC(F)F)C(=O)N[C@@H](Cc1ccccc1)C(=O)[C@@]1(C)CO1 [Example 4, (2S)-N-[(1S)-2-[[(1S)-1-benzyl-2-[(2R)-2-methyloxiran-2-yl]-2-oxo-ethyl]amino]-1-(difluoromethoxymethyl)-2-oxo-ethyl]-2-[[(2S)-3-(difluoromethoxy)-2-[(2-mor-pholinoacetyl)amino]propanoyl]amino]-4 methyl-pentanamide]	−7.57	>−4.00	−6.86	100%
CC(C)C[C@H](NC(=O)[C@H](COC(F)F)NC(=O)[C@H](COC(F)F)NC(=O)[C@H](CCc1ccccc1)NC(=O)CN1CCOCC1)C(=O)[C@@]1(C)CO1 [Example 7, (2S)-N-[(1S)-1-(difluoromethoxymethyl)-2-[[(1S)-1-(difluoromethoxymethyl)-2-[[(1S)-3-methyl-1-[(2R)-2-methyloxirane-2-carbo-nyl]butyl]amino]-2-oxo-ethyl]amino]-2-oxo-ethyl]-2-[(2-morpholinoacetyl)amino]-4-phenyl-butanamide]	−7.54	>−4.00	−6.86	100%
CC(C)C[C@H](NC(=O)[C@H](Cc1ccccc1)NC(=O)[C@H](COC(F)F)NC(=O)[C@H](COC(F)F)NC(=O)CN1CCOCC1)C(=O)[C@@]1(C)CO1 [Example 11, (2S)-2-[[(2S)-3-(difluoromethoxy)-2-[[(2S)-3-(difluoromethoxy)-2-[(2-morpholinoacetyl)-amino]propanoyl]amino]propanoyl]amino]-N-[(1S)-3-methyl-1-[(2R)-2-methyloxirane-2-carbonyl]butyl]-3-phenyl-propanamide]	−7.48	>−4.00	−6.68	100%
CC(C)C[C@H](NC(=O)[C@H](COC(F)F)NC(=O)[C@H](COC(F)F)NC(=O)[C@H](COC(F)F)NC(=O)CN1CCOCC1)C(=O)[C@@]1(C)CO1 [Example 17, (2S)-3-(difluoromethoxy)-N-[(1S)-1-(difluoromethoxymethyl)-2-[[(1S)-1-(difluoro-methoxymethyl)-2-[[(1S)-3-methyl-1-[(2R)-2-methyloxirane-2-carbonyl]butyl]amino]-2-oxo-ethyl]amino]-2-oxo-ethyl]-2-[(2-mor-pholinoacetyl)amino]-propanamide]	−7.27	−5.76	−6.60	100%
